Test [1] has as its target T1, wild-type PAH (Homo sapiens (Human), UniProt P00439). As to the kind of experiment: Thermal stability shift assay (DSF). In kind it is binding. Particulars: compound 30 μM (BH4 43 μM); for ΔTm1 WT PAH: shift of transition midpoint 1 vs NCC; for ΔTm2 WT PAH: shift of transition midpoint 2 vs NCC. The text has this: (§1) 1. Thermal Stability Shift Assay
(§2) Thórólfsson et al. (Biochemistry, 2002, 41(24), 7573-7585) describe that the thermal denaturation of hPAH occurs in three stages: (i) unfolding of the four regulatory domains, which is responsible for the low-temperature calorimetric transition (ii) unfolding of two (out of the four) catalytic domains, which is responsible for the high-temperature transition; and (iii) irreversible protein denaturation. The most important domain for stabilization is the regulatory domain.
(§3) Thus, to test the compound effect on thermal stability of the target protein a thermal stability shift assay (also called differential scanning fluorimetry (DSF)) was performed [Niesen F. H. et al., Nat Protoc., 2007, 2(9), 2212-2221; Gersting S. W. et al., Human Molecular Genetics, 2010, 19(10), 2039-2049; and Gersting S. W. et al., J. Biol Chem. 2010, 285(40), 30686-30697]. DSF monitors thermal unfolding of proteins in the presence of a fluorescent dye (SYPRO Orange; λexc=465 nm, λem=610 nm) and was performed using a real-time PCR instrument (Applied BioSystems 7000HT Fast Real-Time PCR System). Compounds that increase the midpoints of thermal denaturation (Tm) are considered to bind and stabilize the protein.
(§4) In brief, purified wild-type or Arg261Gln (which is the most frequent mutation responsive to BH4) PAH proteins (diluted in 20 mM NaHEPES, pH 7.0 and 200 mM NaCl, 2 mM DTT to 2 mg/ml) were used at a final concentration of 0.2 mg/ml protein per sample. The compounds were tested at a final concentration of 30 μM. A no compound control (NCC) was used according to the compound solvent at a final concentration of 2% (H2O, DMSO, ethanol, methanol). As a positive control we used the natural cofactor 6R-L-erythro-5,6,7,8-tetrahydrobiopterin (BH4, CAS 69056-38-8) stabilized in 100 mM dithiothreitol (DTT), in a final concentration of 43 μM. To exclude unspecific effects of the compound to the dye, a no protein control (NPC) was added (buffer, compound, dye). The measurement was performed in duplicates and samples were denatured by scanning a temperature range of 20 to 75° C. at a scan rate of 0.5° C./min.
(§5) The data was normalized and the respective Tm values were calculated by bi-phasic equation to determine temperatures at which half denaturation occurred (Software GraphPadPrism). To identify compound specific effects on the thermal stability of the target protein, the reference Tm (NCC) was used to calculate the temperature shift between compound treated and not treated protein (Tm−TmNCC), from duplicates, to provide transition midpoints shifts (ΔTm1 and ΔTm2). Tm1 and Tm2 are the two different transition mid point of the unfolding process of the protein as the tetrameric protein PAH unfolds in two steps due to its domains. A shift in Tm1 of 2° C. reflects a relevant increase in thermal stability on the regulatory domain and, thus, is considered a positive result.

Test [2] has as its target T2, Arg261Gln (R261Q) PAH (Homo sapiens (Human), UniProt P00439, R261Q). As to the kind of experiment: Thermal stability shift assay (DSF). The class given is binding. Particulars: compound 30 μM (BH4 43 μM); for ΔTm1 R261Q PAH: shift of transition midpoint 1 vs NCC; for ΔTm2 R261Q PAH: shift of transition midpoint 2 vs NCC.
Excerpt: as §1, §2, §3, §4, §5

In test [3] the target is T1, wild-type PAH. In words: Phenylalanine hydroxylase residual protein amount (dot blot, COS-7 lysates). The class given is cell-based. Particulars: COS-7 cells, compound 10 μM (sepiapterin 5 μM), read-out: PAH protein level (immune blot signal) WT PAH Mean. The method, then:
(§6) 3. Phenylalanine Hydroxylase Residual Protein Amount
(§7) The analysis of the residual PAH protein amount was based on the method described in Gersting S. W. et al., Human Molecular Genetics, 2010, 19(10), 2039-2049 with modifications.
(§8) Detection of the residual PAH protein amount was performed as a dot blot using the lysates obtained from the cell culture where transiently transfected COS-7 cells (with wild-type PAH or PAH variant) were exposed for 48 h to compounds. The experiment was carried out from the same samples as used for measuring enzyme activities.
(§9) 2 μl of the lysate were dropped onto the nitrocellulose membrane. The membrane was allowed to air dry at room temperature for 30 min followed by 40 min blocking in 5% milk in TBS-Tween (room temperature). The membrane was incubated with the mouse monoclonal primary antibody specific for PAH (Millipore, Cat. No. MAB5278, 1:1000 dilution in 5% milk in TBS-Tween) for overnight at 4° C. Next, the membrane was washed (3×10 min in TBS-Tween) and incubated with the secondary HRP-conjugated antibody (anti-mouse antibody; Santa Cruz Biotechnology, Inc., Cat. No. sc-2005; 1:1000 dilution in 5% milk in TBS-Tween) followed by thorough washing in TBS-Tween (3×10 min) and distilled water (1×10 min). Blots were visualized with Pierce™ ECL substrate (ThermoFisher Scientific, Cat No. 32106) and chemiluminescence was monitored with a DIANA III Imaging system or ChemiDoc™ MP Imaging System (BioRad). To analyze the compound effect on the PAH protein amount densitometry analysis was performed using ImageJ Software.
(§10) The effect of compound on PAH protein amount was calculated from triplicates. As for determination of the enzyme activity the background of the not transfected cells (NT) was subtracted from the transfected cells (NCC or compound treated). In the next step delta of the NCC versus compound treated cells was calculated. Residual protein amount greater than 100% represents an increase in the stability of the enzyme with respect to NCC.

The target of test [4] is T2, Arg261Gln (R261Q) PAH. The description is as above. In kind it is cell-based. Particulars: COS-7 cells, compound 10 μM (sepiapterin 5 μM), read-out: PAH protein level (immune blot signal) R261Q PAH Mean. How it is done:
as §6, §7, §8, §9, §10

Test [5] concerns the target T1, wild-type PAH. As to the kind of experiment: Isothermal titration calorimetry. In kind it is binding. The conditions noted are these: ITC; for Kd / N (stoichiometry) / ΔG / ΔH / −TΔS: 25° C., WT PAH. From the text: 4. Isothermal Titration Calorimetry
Isothermal titration calorimetry (ITC) is a quantitative physical technique used to determine binding affinities of small molecules to proteins or other larger molecules [Freyer M. W. and Lewis E. A., Methods in Cell Biology, 2008, vol. 4, Chapter 4, pages 79-113]. The measurement detects changes of heat generated or absorbed when molecules interact, generate binding kinetics and thermodynamic profile of the molecular interaction. The following parameters are determined: KD (equilibrium dissociation constant), N (stoichiometry of the interaction (mol ligand/mol complex)), ΔH (enthalpy change), ΔG (Gibbs energy), T (temperature) and ΔS (entropy change).
ITC experiments were performed at 25° C. using a MicroCal PEAQ-ITC microcalorimeter (Malvern). PAH proteins were prepared in a HEPES buffer (HEPES 20 mM Hepes, 0.2M NaCl, 1 mM DTT, pH 7.0) containing 5% DMSO, in order to match the final DMSO concentration of the compounds dilutions. The protein concentration used (30 μM) was determined using ultraviolet (UV) absorbance at 280 nm. The compounds ([…]) were prepared using the exact same buffer. Twelve injections of 3 μL of compound/ligand were titrated into the sample cell (containing the protein) over 31 min with a stirring speed of 750 rpm. Data was baseline adjusted by subtracting the background obtained from equivalent injections of compound into the buffer solution. The titration curves were analyzed using MicroCal PEAQ-ITC analytics software (version 1.1.0.1262, Malvern Instruments Ltd.) using a model that assumes a set of identical binding sites where the total heat of the solution is calculated as:
[formula] where n is the number of binding sites, Mt is the total protein concentration in the cell, ΔH is the molar heat of ligand binding, Xt is the total concentration of ligand, and K the binding constant (K=1/KD). The heat released per injection (i), ΔQ(i), is calculated following the equation below, which compensates for the volume that is added in each injection (ΔVi). V0 is the initial volume in the cell.
The parameters, n, K, and ΔH are determined using non-linear square fitting using the Levenberg-Marquardt algorithm.

Molecules are shown by their SMILES. Where a name gives a salt, the structure may show the parent alone. Read-outs that look alike come from different tables or passages of the source.

T2 sequence (P00439 whole entry R261Q): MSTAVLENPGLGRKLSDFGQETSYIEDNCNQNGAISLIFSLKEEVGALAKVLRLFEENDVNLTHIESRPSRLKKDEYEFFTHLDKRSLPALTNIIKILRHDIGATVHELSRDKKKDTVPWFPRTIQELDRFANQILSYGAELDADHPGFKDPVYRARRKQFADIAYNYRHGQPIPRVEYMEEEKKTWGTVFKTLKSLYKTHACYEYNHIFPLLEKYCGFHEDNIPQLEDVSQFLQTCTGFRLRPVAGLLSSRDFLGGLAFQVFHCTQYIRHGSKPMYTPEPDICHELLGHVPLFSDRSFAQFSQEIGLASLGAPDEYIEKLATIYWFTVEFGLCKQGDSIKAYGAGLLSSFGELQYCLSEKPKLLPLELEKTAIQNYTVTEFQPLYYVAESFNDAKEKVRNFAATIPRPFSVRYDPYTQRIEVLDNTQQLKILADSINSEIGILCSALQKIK
T1 sequence (P00439 whole entry, the tested form may be a part): as the sequence (P00439 whole entry R261Q) above, with Q261R counted along it

Consider `CCc1cccc2cc(C(O)CNC(C)(C)C)oc12` (centres unmarked) [Bufuralol HCl, 2-(tert-butylamino)-1-(7-ethyl-1-benzofuran-2-yl)ethan-1-ol], for which, in test [1], the “ΔTm1 WT PAH” value is 1.62 °C and the “ΔTm2 WT PAH” value is −0.09 °C. The “ΔTm1 R261Q PAH” value in test [2] stood at 2.24 °C.

As for `CCC[S+]([O-])c1ccc2[nH]c(NC(=O)OC)nc2c1` (centres unmarked) [Ricobendazole, methyl [5-(propane-1-sulfinyl)-1H-benzoimidazol-2-yl]-carbamate], in test [1], the “ΔTm1 WT PAH” value was −0.48 °C and the “ΔTm2 WT PAH” value is 2.57 °C. In test [2], the “ΔTm1 R261Q PAH” value turned out to be 2.19 °C and the “ΔTm2 R261Q PAH” value was found to be 3.39 °C. Besides, the PAH protein level (% of control) at 10 µM in test [3] (48 h) came out at 154%. Moreover, the PAH protein level (% of control) at 10 µM in test [4] (48 h) was 104%.

`C=CCn1c(=O)n([C@@H]2O[C@H](CO)C(O)C2O)c2nc(N)[nH]c(=O)c21` (stereo in doubt) [Loxoribine, 2-amino-9-[(2R,3R,4S,5R)-3,4-dihydroxy-5-(hydroxymethyl)oxolan-2-yl]-7-prop-2-enyl-3H-purine-6,8-dione]: in test [1], the “ΔTm1 WT PAH” value is 3.57 °C.

Turning to `Nc1cc(N2CCCCC2)nc(N)[n+]1[O-]` [Minoxidil, 2,6-diamino-4-(piperidin-1-yl)pyrimidine 1-oxide], the figures for the PAH protein level (% of control) at 10 µM in test [3] (48 h) and in test [4] (48 h) were 127% and 96.1%, respectively.

Turning to `CCc1cccc2cc(C(O)CNC(C)(C)C)oc12` (centres unmarked) [S-Bufuralol HCl, 2-(tert-butylamino)-1-(7-ethyl-1-benzofuran-2-yl)ethan-1-ol], in test [1], the “ΔTm1 WT PAH” value was determined as 1.05 °C and the “ΔTm2 WT PAH” value is 0.24 °C. Also, in test [2], the “ΔTm1 R261Q PAH” value amounted to 3.73 °C and the “ΔTm2 R261Q PAH” value worked out at 0.92 °C.

Take `C[C@H](O)[C@H](O)[C@H]1CNc2[nH]c(N)nc(=O)c2N1` [BH4, 6R-L-erythro-5,6,7,8-tetrahydrobiopterin]: in test [5], the Kd (usually the concentration at which binding is half-saturated) was 40.7 ± 14.1 µM, the “N (stoichiometry)” value is given as 0.936 ± 0.3 sites, the ΔG was -6 kcal/mol and the ΔH was -17.9 ± 7.91 kcal/mol. Besides, the “−TΔS” value in test [5] was found to be 11.9 kcal/mol. For the same molecule, in test [1], the “ΔTm1 WT PAH” value is 0.20 °C and the “ΔTm2 WT PAH” value was found to be 1.88 °C. Further, in test [2], the “ΔTm1 R261Q PAH” value was determined as 2.54 °C and the “ΔTm2 R261Q PAH” value is 12.17 °C.

As to `CC(C)[C@H](N)C(=O)OCCOCn1cnc2c(=O)[nH]c(N)nc21` [Valacyclovir HCl, 2-[(2-amino-6-oxo-3H-purin-9-yl)methoxy]ethyl (2S)-2-amino-3-methylbutanoate], the PAH protein level (% of control) at 10 µM in test [3] (48 h) was determined as 146%; in test [4] (48 h), 104%.

As to `CN1CCc2cc3c(cc2C1O)OCO3` (centres unmarked) [Hydrastinine HCl, 6-methyl-7,8-dihydro-5H-[1,3]dioxolo[4,5-g]isoquinolin-5-ol], in test [5], binding was put at a Kd of 2.99 ± 3.2 µM, the “N (stoichiometry)” value is 1.310 ± 0.2 sites, the ΔG is -7.55 kcal/mol and the ΔH came out at 2.29 ± 0.55 kcal/mol. In addition, the “−TΔS” value in test [5] is -9.82 kcal/mol. Also, the “Kd (in words)” value in test [5] (recombinant PAH) is reported as “low micromolar range”. In test [1], the “ΔTm1 WT PAH” value is −0.49 °C and the “ΔTm2 WT PAH” value came out at 6.10 °C. Moreover, in test [2], the “ΔTm1 R261Q PAH” value came to 2.46 °C and the “ΔTm2 R261Q PAH” value turned out to be 0.04 °C. In addition, the PAH protein level (% of control) at 10 µM in test [3] (48 h) amounted to 164%. Further, the PAH protein level (% of control) at 10 µM in test [4] (48 h) turned out to be 141%.

As for `CC(C)[C@H](N)C(=O)OCC(CO)OCn1cnc2c(=O)[nH]c(N)nc21` (stereo partly drawn) [Valganciclovir HCl, [2-[(2-amino-6-oxo-3H-purin-9-yl)methoxy]-3-hydroxypropyl] (2S)-2-amino-3-methylbutanoate], the PAH protein level (% of control) at 10 µM was found to be 138% in test [3] (COS-7, 48 h) and 141% in test [4] (COS-7, 48 h).
